# Assay results published in PubChem BioAssay (NCI).
#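 Five concentrations, 48 hours, 96-well plates. TGI: total growth inhibition.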
# Key:
# Test in all cases: inhibition of tumour cell growth, NCI panel, 48 h
# 786-0 renal = tested on: 786-0 renal
# A549 NSCLC = tested on: A549 NSCLC
# ACHN renal = tested on: ACHN renal
# BT-549 breast = tested on: BT-549 breast
# CAKI-1 renal = tested on: CAKI-1 renal
# CCRF-CEM leukemia = tested on: CCRF-CEM leukemia
# COLO 205 colon = tested on: COLO 205 colon
# DU-145 prostate = tested on: DU-145 prostate
# EKVX NSCLC = tested on: EKVX NSCLC
# HCC-2998 colon = tested on: HCC-2998 colon
# HCT-116 colon = tested on: HCT-116 colon
# HCT-15 colon = tested on: HCT-15 colon
# HL-60(TB) leukemia = tested on: HL-60(TB) leukemia
# HOP-62 NSCLC = tested on: HOP-62 NSCLC
# HS 578T breast = tested on: HS 578T breast
# HT29 colon = tested on: HT29 colon
# IGROV1 ovarian = tested on: IGROV1 ovarian
# K-562 leukemia = tested on: K-562 leukemia
# KM12 colon = tested on: KM12 colon
# LOX IMVI melanoma = tested on: LOX IMVI melanoma
# M14 melanoma = tested on: M14 melanoma
# MALME-3M melanoma = tested on: MALME-3M melanoma
# MCF7 breast = tested on: MCF7 breast
# MDA-MB-231 breast = tested on: MDA-MB-231 breast
# MDA-MB-435 = tested on: MDA-MB-435
# MOLT-4 leukemia = tested on: MOLT-4 leukemia
# NCI-H226 lung = tested on: NCI-H226 lung
# NCI-H23 lung = tested on: NCI-H23 lung
# NCI-H460 lung = tested on: NCI-H460 lung
# NCI-H522 lung = tested on: NCI-H522 lung
# NCI/ADR-RES ovarian = tested on: NCI/ADR-RES ovarian
# OVCAR-3 ovarian = tested on: OVCAR-3 ovarian
# OVCAR-4 ovarian = tested on: OVCAR-4 ovarian
# OVCAR-5 ovarian = tested on: OVCAR-5 ovarian
# OVCAR-8 ovarian = tested on: OVCAR-8 ovarian
# PC-3 prostate = tested on: PC-3 prostate
# RXF 393 renal = tested on: RXF 393 renal
# SF-268 CNS = tested on: SF-268 CNS
# SF-295 CNS = tested on: SF-295 CNS
# SF-539 CNS = tested on: SF-539 CNS
# SK-MEL-2 melanoma = tested on: SK-MEL-2 melanoma
# SK-MEL-28 melanoma = tested on: SK-MEL-28 melanoma
# SK-OV-3 ovarian = tested on: SK-OV-3 ovarian
# SN12C renal = tested on: SN12C renal
# SNB-19 CNS = tested on: SNB-19 CNS
# SNB-75 CNS = tested on: SNB-75 CNS
# SW-620 colon = tested on: SW-620 colon
# T-47D breast = tested on: T-47D breast
# TK-10 renal = tested on: TK-10 renal
# U251 CNS = tested on: U251 CNS
# UACC-257 melanoma = tested on: UACC-257 melanoma
# UACC-62 melanoma = tested on: UACC-62 melanoma
# UO-31 renal = tested on: UO-31 renal
# A498 renal = tested on: A498 renal
# HOP-92 NSCLC = tested on: HOP-92 NSCLC
# RPMI-8226 leukemia = tested on: RPMI-8226 leukemia
# SK-MEL-5 melanoma = tested on: SK-MEL-5 melanoma
compound,measurement,setting,value
Cc1cc(C(=O)CBr)c(CN2C(=O)c3ccccc3C2=O)c(=O)n1C,TGI,786-0 renal,> 100 µM
same,TGI,A549 NSCLC,44.7 µM
same,TGI,ACHN renal,25.6 µM
same,TGI,BT-549 breast,32.7 µM
same,TGI,CAKI-1 renal,47.8 µM
same,TGI,CCRF-CEM leukemia,6.25 µM
same,TGI,COLO 205 colon,47.9 µM
same,TGI,DU-145 prostate,30.5 µM
same,TGI,EKVX NSCLC,14.5 µM
same,TGI,HCC-2998 colon,59.7 µM
same,TGI,HCT-116 colon,> 100 µM
same,TGI,HCT-15 colon,34.9 µM
same,TGI,HL-60(TB) leukemia,25 µM
same,TGI,HOP-62 NSCLC,> 100 µM
same,TGI,HS 578T breast,45.6 µM
same,TGI,HT29 colon,> 100 µM
same,TGI,IGROV1 ovarian,64.2 µM
same,TGI,K-562 leukemia,20.6 µM
same,TGI,KM12 colon,40.1 µM
same,TGI,LOX IMVI melanoma,99.3 µM
same,TGI,M14 melanoma,> 100 µM
same,TGI,MALME-3M melanoma,36.8 µM
same,TGI,MCF7 breast,56 µM
same,TGI,MDA-MB-231 breast,40.2 µM
same,TGI,MDA-MB-435,43.6 µM
same,TGI,MOLT-4 leukemia,5.57 µM
same,TGI,NCI-H226 lung,> 100 µM
same,TGI,NCI-H23 lung,> 100 µM
same,TGI,NCI-H460 lung,76.6 µM
same,TGI,NCI-H522 lung,37.4 µM
same,TGI,NCI/ADR-RES ovarian,> 100 µM
same,TGI,OVCAR-3 ovarian,40.9 µM
same,TGI,OVCAR-4 ovarian,> 100 µM
same,TGI,OVCAR-5 ovarian,52.6 µM
same,TGI,OVCAR-8 ovarian,41.1 µM
same,TGI,PC-3 prostate,35.5 µM
same,TGI,RXF 393 renal,33.7 µM
same,TGI,SF-268 CNS,54.9 µM
same,TGI,SF-295 CNS,> 100 µM
same,TGI,SF-539 CNS,34.3 µM
same,TGI,SK-MEL-2 melanoma,61.7 µM
same,TGI,SK-MEL-28 melanoma,42.7 µM
same,TGI,SK-OV-3 ovarian,> 100 µM
same,TGI,SN12C renal,36 µM
same,TGI,SNB-19 CNS,93.2 µM
same,TGI,SNB-75 CNS,56.5 µM
same,TGI,SW-620 colon,23 µM
same,TGI,T-47D breast,74.4 µM
same,TGI,TK-10 renal,25.3 µM
same,TGI,U251 CNS,38 µM
same,TGI,UACC-257 melanoma,33.5 µM
same,TGI,UACC-62 melanoma,34.7 µM
same,TGI,UO-31 renal,41.6 µM
COc1cc(Nc2c(C#N)[n+]([O-])c3ccccc3[n+]2[O-])cc(OC)c1OC,TGI,786-0 renal,49.8 µM
same,TGI,A498 renal,> 100 µM
same,TGI,A549 NSCLC,> 100 µM
same,TGI,ACHN renal,> 100 µM
same,TGI,BT-549 breast,> 100 µM
same,TGI,CAKI-1 renal,> 100 µM
same,TGI,CCRF-CEM leukemia,> 100 µM
same,TGI,COLO 205 colon,28.7 µM
same,TGI,DU-145 prostate,> 100 µM
same,TGI,EKVX NSCLC,> 100 µM
same,TGI,HCC-2998 colon,86 µM
same,TGI,HCT-116 colon,29.9 µM
same,TGI,HCT-15 colon,> 100 µM
same,TGI,HL-60(TB) leukemia,> 100 µM
same,TGI,HOP-62 NSCLC,> 100 µM
same,TGI,HOP-92 NSCLC,> 100 µM
same,TGI,HS 578T breast,> 100 µM
same,TGI,HT29 colon,> 100 µM
same,TGI,K-562 leukemia,> 100 µM
same,TGI,KM12 colon,> 100 µM
same,TGI,LOX IMVI melanoma,> 100 µM
same,TGI,M14 melanoma,36 µM
same,TGI,MALME-3M melanoma,> 100 µM
same,TGI,MCF7 breast,59 µM
same,TGI,MDA-MB-435,> 100 µM
same,TGI,MOLT-4 leukemia,> 100 µM
same,TGI,NCI-H23 lung,38.2 µM
same,TGI,NCI-H460 lung,> 100 µM
same,TGI,NCI-H522 lung,> 100 µM
same,TGI,NCI/ADR-RES ovarian,51 µM
same,TGI,OVCAR-3 ovarian,> 100 µM
same,TGI,OVCAR-4 ovarian,> 100 µM
same,TGI,OVCAR-5 ovarian,54.7 µM
same,TGI,OVCAR-8 ovarian,> 100 µM
same,TGI,PC-3 prostate,> 100 µM
same,TGI,RPMI-8226 leukemia,> 100 µM
same,TGI,RXF 393 renal,> 100 µM
same,TGI,SF-268 CNS,> 100 µM
same,TGI,SF-295 CNS,> 100 µM
same,TGI,SF-539 CNS,> 100 µM
same,TGI,SK-MEL-2 melanoma,> 100 µM
same,TGI,SK-MEL-28 melanoma,> 100 µM
same,TGI,SK-MEL-5 melanoma,54.1 µM
same,TGI,SK-OV-3 ovarian,67.4 µM
same,TGI,SN12C renal,> 100 µM
same,TGI,SNB-19 CNS,> 100 µM
same,TGI,SNB-75 CNS,> 100 µM
same,TGI,SW-620 colon,> 100 µM
same,TGI,T-47D breast,48.2 µM
same,TGI,TK-10 renal,> 100 µM
same,TGI,U251 CNS,> 100 µM
same,TGI,UACC-257 melanoma,67.2 µM
same,TGI,UO-31 renal,> 100 µM
